{"source": "patent US11932611B1", "about": "“3-(5-(3-fluorophenyl)-4-phenyl-4H-1,2,4-triazol-3-ylthio)propanoic acid as an antimicrobial compound” (KING FAISAL UNIVERSITY, priority 2023, dated 2024)", "format_in_all_cases": "cell-based", "key": {"[1]": {"test_system": "Chrysosporium keratinophilum", "assay": "Agar plate disc-diffusion method, antifungal inhibition zone", "settings": "Sabouraud's dextrose agar, 72 h", "description": "(§1) The agar plate disc-diffusion method was applied. […] The discs were then placed onto the surface of agar plates (nutrient agar for bacteria and Sabouraud's dextrose agar for fungi) seeded with the test organism. Each plate contained 15 mL of the agar medium, previously seeded with 0.2 mL of the broth culture of each organism pregrown for 18 h. The plates were incubated at 37° C. for 48 h, and 72 h for fungi. The inhibition zones was measured in mm. Discs impregnated with DMSO were used as a control, and its inhibition zone was subtracted from the tested compound actual inhibition zone."}, "[2]": {"test_system": "Aspergillus flavus", "assay": "Agar plate disc-diffusion method, antifungal inhibition zone", "settings": "Sabouraud's dextrose agar, 72 h", "description": "as §1"}, "[3]": {"test_system": "Staphylococcus aureus", "assay": "Agar plate disc-diffusion method, antibacterial inhibition zone", "settings": "nutrient agar, 37° C., 48 h", "description": "as §1"}, "[4]": {"test_system": "Escherichia coli", "assay": "Agar plate disc-diffusion method, antibacterial inhibition zone", "settings": "nutrient agar, 37° C., 48 h", "description": "as §1"}, "[5]": {"test_system": "Pseudomonas aeruginosa", "assay": "Agar plate disc-diffusion method, antibacterial inhibition zone", "settings": "nutrient agar, 37° C., 48 h", "description": "as §1"}, "[6]": {"test_system": "Bacillus cereus", "assay": "Agar plate disc-diffusion method, antibacterial inhibition zone", "settings": "nutrient agar, 37° C., 48 h", "description": "as §1"}, "[7]": {"settings": "A = concentration of comp. = 10,000 μL"}, "[8]": {"settings": "B = concentration of comp. = 30,000 μL"}, "[9]": {"settings": "C = concentration of comp. = 50,000 μL"}}, "data": [{"compound": "O=C(O)CCSc1nnc(-c2cccc(F)c2)n1-c1ccccc1", "note": "[III, 3-(5-(3-fluorophenyl)-4-phenyl-4H-1,2,4-triazol-3-ylthio)propanoic acid]", "values": [{"measurement": "inhibition zone, Chrysosporium keratinophilum, A", "setting": "[1]; [7]", "result": 23, "unit": "mm"}, {"measurement": "inhibition zone, Chrysosporium keratinophilum, B", "setting": "[1]; [8]", "result": 26, "unit": "mm"}, {"measurement": "inhibition zone, Chrysosporium keratinophilum, C", "setting": "[1]; [9]", "result": 43, "unit": "mm"}, {"measurement": "inhibition zone, Aspergillus flavus, A", "setting": "[2]; [7]", "result": 19, "unit": "mm"}, {"measurement": "inhibition zone, Aspergillus flavus, B", "setting": "[2]; [8]", "result": 25, "unit": "mm"}, {"measurement": "inhibition zone, Aspergillus flavus, C", "setting": "[2]; [9]", "result": 36, "unit": "mm"}, {"measurement": "inhibition zone, Staphylococcus aureus, A", "setting": "[3]; [7]", "result": 27, "unit": "mm"}, {"measurement": "inhibition zone, Staphylococcus aureus, B", "setting": "[3]; [8]", "result": 34, "unit": "mm"}, {"measurement": "inhibition zone, Staphylococcus aureus, C", "setting": "[3]; [9]", "result": 45, "unit": "mm"}, {"measurement": "inhibition zone, Escherichia coli, A", "setting": "[4]; [7]", "result": 25, "unit": "mm"}, {"measurement": "inhibition zone, Escherichia coli, B", "setting": "[4]; [8]", "result": 31, "unit": "mm"}, {"measurement": "inhibition zone, Escherichia coli, C", "setting": "[4]; [9]", "result": 45, "unit": "mm"}, {"measurement": "inhibition zone, Pseudomonas aeruginosa, A", "setting": "[5]; [7]", "result": 22, "unit": "mm"}, {"measurement": "inhibition zone, Pseudomonas aeruginosa, B", "setting": "[5]; [8]", "result": 24, "unit": "mm"}, {"measurement": "inhibition zone, Pseudomonas aeruginosa, C", "setting": "[5]; [9]", "result": 41, "unit": "mm"}, {"measurement": "inhibition zone, Bacillus Cereus, A", "setting": "[6]; [7]", "result": 24, "unit": "mm"}, {"measurement": "inhibition zone, Bacillus Cereus, B", "setting": "[6]; [8]", "result": 27, "unit": "mm"}, {"measurement": "inhibition zone, Bacillus Cereus, C", "setting": "[6]; [9]", "result": 38, "unit": "mm"}]}]}
